Calls of active or inactive are those of the source.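 Rule for the calls: active = IC50 under 100 nM in each of the cell lines carrying a mutated TP53 gene; inactive = the rest.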
Assays:
Experiment in all cases: viability loss in TP53-mutant tumour panel – cell-based, HeLa, COLO741, H2122, CellTiter-Glo, dry powder, dose response (AID 743151)
[1] = test system: HeLa TP53-mutant viability, CellTiter-Glo, 48 h
[2] = test system: H2122 TP53-mutant viability, CellTiter-Glo, 48 h; conditions: measured here: H2122 viability IC50
[3] = test system: COLO741 TP53-mutant viability, CellTiter-Glo, 48 h; conditions: measured here: COLO741 viability IC50

Structure (SMILES) | IC50 [1] | IC50 [2] | IC50 [3]
CCN1N=C(c2ccc(N(CC)CC)cc2)[C@H](C)CC1=O | > 10000 nM (inactive) | > 10000 nM | > 10000 nM
CC(=O)Nc1ccc(C2=NNC(=O)C[C@H]2C)cc1 | 4.93 nM | 12.7 nM | 7.65 nM
C[C@@H]1CC(=O)NN=C1c1ccc(Cl)cc1 | 32.7 nM | 79.9 nM | 42.6 nM
C[C@@H]1CC(=O)NN=C1c1ccc(C2CCCCC2)cc1 | 7.27 nM | 28.7 nM | 11.3 nM
C[C@@H]1CC(=O)NN=C1c1ccc(F)c(F)c1 | 22.4 nM | 46.2 nM | 33.3 nM
COc1cc2c(cc1OC)-c1cc(=Nc3c(C)cc(C)cc3C)n(C)c(=O)n1CC2 | > 10000 nM (inactive) | > 10000 nM | > 10000 nM
C[C@@H]1CC(=O)NN=C1c1ccc(N2CCOCC2)cc1 | 13.2 nM | 30 nM | 20 nM
C[C@@H]1CC(=O)NN=C1c1ccc(N2CCOCC2)c(F)c1 | 1.59 nM | 3.17 nM | 2.88 nM
C[C@H]1CC(=O)NN=C1c1ccc(N2CCOCC2)c(F)c1 | > 10000 nM (inactive) | > 10000 nM | > 10000 nM
C[C@@H]1CC(=O)NN=C1c1ccc(-c2cncnc2)cc1 | 12.5 nM | 36.5 nM | 19.6 nM
O=C1CN2Cc3c(ccc(Cl)c3Cl)N=C2N1 | 7.65 nM | 17.1 nM | 12 nM
CCN(CC)c1ccc(C2=NNC(=O)CC2C)cc1[N+](=O)[O-] (stereo unspecified) | 6.65 nM | 13.4 nM | 12 nM

— PubChem BioAssay AID743151 (Broad Institute, 2013)
